Laboratory results published in patent publication US9765052B2, “Anthranilamide compounds, their mixtures and the use thereof as pesticides” (BASF SE, priority 2013, dated 2017).

What was measured:
[1] = tested on: green peach aphid (Myzus persicae); assay: Test 1: control of green peach aphid through systemic means (artificial diet, 96-well microtiter plates); type: in vivo; conditions: 3 days
From the text: If present, synergism can be described as an interaction where the combined effect of two or more compounds is greater than the sum of the individual effects of each of the compounds. The presence of a synergistic effect in terms of percent control, between two mixing partners (X and Y) can be calculated using the Colby equation (Colby, S. R., 1967, Calculating Synergistic and Antagonistic Responses in Herbicide Combinations, Weeds, 15, 20-22):
When the observed combined control effect is greater than the expected combined control effect (E), then the combined effect is synergistic.
For evaluating control of green peach aphid (Myzus persicae) through systemic means the test unit consisted of 96-well-microtiter plates containing liquid artificial diet under an artificial membrane.
The compounds or mixtures were formulated using a solution containing 75% water and 25% DMSO. Different concentrations of formulated compounds or mixtures were pipetted into the aphid diet, using a custom built pipetter, at two replications.
For experimental mixtures in these tests identical volumes of both mixing partners at the desired concentrations respectively, were mixed together.
After application, 5-8 adult aphids were placed on the artificial membrane inside the microtiter plate wells. The aphids were then allowed to suck on the treated aphid diet and incubated at […], 50±5% RH for 3 days. Aphid mortality and fecundity was then visually assessed. For the mixture tested the results are listed in the tables for Example E2-1 and E2-2.

Degradation in soil = type: physicochemical; conditions: neutral sandy loam soil LUFA 5M; incubated at 27° C. and 40% of max. water-holding capacity over 90 days; DT50 referring to 20° C.; SFO or DFOP kinetics
Description: Degradation of the compound (I-B-131) and compound (I-B-33) in soil was compared. The two compounds were incubated in neutral sandy loam soil (LUFA 5M) at 27° C. and 40% of the max. water-holding capacity over a period of 90 days. Soil extraction was carried out with acetonitrile followed by acetonitrile/water (1/1) and the extracted test compounds were quantified by HPLC-MS. The following DT50 values (referring to 20° C.) were obtained assuming single first order (SFO) or double first order in parallel (DFOP) kinetics: […]

[2] = tested on: Diamide-resistant diamond back moth (Plutella xylostella), Cebu strain; conditions: third instar larvae, mortality 3 days after inoculation; comparing LC50s and LC90s
[3] = tested on: Neonicotinoid and pyrethroid resistant strain of the green peach aphid (Myzus persicae); assay: B2 a) Myzus persicae mixed population, contact activity, curative on pea seedlings; Resistance Factor RF80; type: in vivo; conditions: FRC-P strain (neonicotinoid resistant) vs standard screening strain of Myzus persicae; lowest concentration giving greater than 80% mortality, 6 days after treatment
From the text: B2: Determination of the cross-resistance status of compounds I when applied against agronomically important pest species resistant to one or more commercially available class of insecticide.
(§1) The level of resistance and therefore the impact on the performance of the insecticide can be measured by the use of a ‘Resistance Factor’. The resistance factor can be calculated by dividing the concentration of an insecticide that provides a set level of mortality (i.e. 80 percent) for the ‘resistant’ strain with the concentration of the same insecticide that provides the same level of mortality for the ‘susceptible’ insect of the same species and life-stage. Although there are no set rules, a low value (1-10) indicates no cross-resistance and only natural levels of variation and a high value (50+) provides strong evidence of cross-resistance.
a) Neonicotinoid and Pyrethroid Resistant Strain of the Green Peach Aphid (Myzus persicae)
Myzus persicae strains utilised: • Standard screening strain of Myzus persicae (Neonicotinoid susceptible) • FRC-P strain of Myzus persicae (Neonicotinoid resistant) Bioassay Method
Myzus persicae: mixed population, contact activity, curative on pea seedlings
Pea seedlings, infested with an aphid population of mixed ages, are treated with the test solutions in a spray chamber. 6 days after treatment, samples are checked for mortality. […]

[4] = tested on: Neonicotinoid resistant strain of the brown planthopper (Nilaparvata lugens); assay: B2 b) Nilaparvata lugens larvicide, feeding/contact activity, preventive on rice seedlings; Resistance Factor RF80; type: in vivo; conditions: IND3 strain (neonicotinoid resistant) vs standard screening strain of Nilaparvata lugens; lowest concentration giving greater than 80% mortality
From the text: as §1
b) Neonicotinoid Resistant Strain of the Brown Planthopper (Nilaparvata lugens)
Nilaparvata lugens strains utilised: • Standard screening strain of Nilaparvata lugens (Neonicotinoid susceptible) • IND3 strain of Nilaparvata lugens (Neonicotinoid resistant) Bioassay Method: Nilaparvata lugens: Larvicide, Feeding/Contact Activity, Preventive
Rice seedlings are treated with the diluted test solutions in a turn table spray chamber. After drying, they are infested with 20 N3 nymphs. 6 and 12 days after the treatment samples are checked for mortality, growth regulation, and effects on the Fi generation.
The Resistance Factor (RF80) of different compounds is tested. […]

[5] = tested on: ALM07 strain (neonicotinoid and pyrethroid resistant), adult whitefly
From the text: Bioassay Method Bemisia tabaci Residual Activity, Preventive Egg Lay

CC1=NNC(=O)N(/N=C/c2cccnc2)C1 [Pymetrozine, pymetrozine]
Average Control % ([1]; Example E2-1, 80 ppm): 0%

CNC(=O)c1cc(Cl)cc(C)c1NC(=O)c1cc(Br)nn1-c1ncccc1Cl [I-B-33, chlorantraniliprole]
DT50 (Degradation in soil): 89 days | Average Control % ([1]; Example E2-2, 0.4 ppm): 0%

CC(NC(=O)c1cc(Cl)cc(Br)c1NC(=O)c1cc(Br)nn1-c1ncccc1Cl)C1CC1 (stereo not shown) [I-A-1]
Average Control % ([1]; Example E2-1, 0.4 ppm): 0% | Average Control % ([1]; Example E2-2, 0.8 ppm): 0%

Cc1cc(C(F)(C(F)(F)F)C(F)(F)F)ccc1NC(=O)c1cccc(I)c1C(=O)NC(C)(C)CS(C)(=O)=O [flubendiamide]
Efficacy against field collected Cebu strain of Plutella xylostella [2]: only weak efficacies

Cc1cc(Cl)cc(C(N)=O)c1NC(=O)c1cc(C(F)(F)F)nn1-c1ncccc1Cl [I-B-131, N-(2-carbamoyl-4-chloro-6-methyl-phenyl)-2-(3-chloro-2-pyridyl)-5-(trifluoromethyl)pyrazole-3-carboxamide]
DT50 (Degradation in soil): 41 days

CN1COCN(Cc2cnc(Cl)s2)/C1=N\[N+](=O)[O-] [thiamethoxam]
Resistance Factor (RF80) [3]: > 250 | Resistance Factor (RF80) [4]: > 64 | RF in residual mortality bioassay of adult whitefly [5]: > 250
